Columns and labels:
[1] = Formaldehyde removing ability test (GC); conditions: 2.0% formaldehyde solution, 3 molar equivalents, room temperature
human skin = assay: Skin irritation test of active ingredient (patch method, CTFA guidelines); assay type: in vivo; conditions: for Test result (number of subject) (+) / Test result (number of subject) (−) / Test result (number of subject) (++) / Test result (number of subject) (±): 20 subjects, 24 hours patch; for Test result (number of subject) (+): apparent reddening; for Test result (number of subject) (−): no erythema or symptoms; for Test result (number of subject) (++): reddened and swollen; for Test result (number of subject) (±): slightly reddish; for Degree of irritation: Equation 1
Procedure: A total of 20 people (10 men and 10 women in their 20s and 30s) were tested for skin irritation using the patch method according to the guidelines of CTFA (The Cosmetic, Toiletry & Fragrance Association, Inc. Washington, D.C.).
A filter paper disk was placed in an 8 mm diameter, 10 panels of pin chamber.
After 24 hours, the pin chamber was removed, and skin conditions were visually observed. The degree and grade for skin irritation were calculated according to the following Equation 1, and the results are shown in Table 3 below.
[Criteria for Skin Irritation]
(−): No erythema or particularly no symptoms; (±): slightly reddish than the periphery; (+): Apparent reddening than periphery; (++): More reddened and swollen than periphery.
[Grade for Skin Irritation]
Degree of irritation 0-0.1: Grade I (unstimulated);
Degree of irritation 0.11-0.3: Grade II (weakly stimulated);
Degree of irritation 0.31-0.5: Grade III (moderately stimulated);
Degree of irritation 0.51 or more: Grade IV (strongly stimulated)

SMILES | Area (formaldehyde, GC) ([1]; 30 min) | Area (formaldehyde, GC) ([1]; 180 min) | Area (formaldehyde, GC) ([1]; Initial) | Grade (human skin; content 0.1%) | Test result (number of subject) (+) (human skin; content 0.1%) | Test result (number of subject) (−) (human skin; content 0.1%) | Test result (number of subject) (++) (human skin; content 0.1%) | Test result (number of subject) (±) (human skin; content 0.1%) | Degree of irritation (human skin; content 0.1%) | Grade (human skin; content 0.5%) | Test result (number of subject) (+) (human skin; content 0.5%) | Test result (number of subject) (−) (human skin; content 0.5%) | Test result (number of subject) (++) (human skin; content 0.5%) | Test result (number of subject) (±) (human skin; content 0.5%) | Degree of irritation (human skin; content 0.5%) | Grade (human skin; content 1.0%) | Test result (number of subject) (+) (human skin; content 1.0%) | Test result (number of subject) (−) (human skin; content 1.0%) | Test result (number of subject) (++) (human skin; content 1.0%) | Test result (number of subject) (±) (human skin; content 1.0%) | also measured
O=C(O)c1ccc(N2CCN(c3ccc(C(=O)O)o3)CCN(c3ccc(C(=O)O)o3)CCN(c3ccc(C(=O)O)o3)CC2)o1 [Embodiment 8, 5,5′,5″,5′″-(1,4,7,10-tetraazacyclododecane-1,4,7,10-tetrayl)tetrakis(furan-2-carboxylic Acid)] | 0.168 mAU * min | 0 mAU * min | 0.305 mAU * min | I (Degree of irritation 0-0.1: Grade I (unstimulated)) | 0 | 20 | 0 | 0 | 0 | I (Degree of irritation 0-0.1: Grade I (unstimulated)) | 0 | 20 | 0 | 0 | 0 | I (Degree of irritation 0-0.1: Grade I (unstimulated)) | 0 | 18 | 0 | 2 | Degree of irritation (human skin; content 1.0%): 0.10
C1CNCCNCCNCCN1 [Cyclen, 1,4,7,10-tetraazacyclododecane] | 0.181 mAU * min | 0 mAU * min | 0.305 mAU * min | I (Degree of irritation 0-0.1: Grade I (unstimulated)) | 0 | 20 | 0 | 0 | 0 | I (Degree of irritation 0-0.1: Grade I (unstimulated)) | 0 | 20 | 0 | 0 | 0 | II (Degree of irritation 0.11-0.3: Grade II (weakly stimulated)) | 1 | 18 | 0 | 1 | Degree of irritation (human skin; content 1.0%): 0.15
O=C(O)c1cncc(N2CCCN(c3cncc(C(=O)O)c3)CCN(c3cncc(C(=O)O)c3)CCCN(c3cncc(C(=O)O)c3)CC2)c1 [Embodiment 11, 5,5′,5″,5′″-(1,4,8,11-tetraazacyclotetradecane-1,4,8,11-tetrayl)tetranicotinic Acid] | 0.174 mAU * min | 0 mAU * min | 0.305 mAU * min | I (Degree of irritation 0-0.1: Grade I (unstimulated)) | 0 | 20 | 0 | 0 | 0 | I (Degree of irritation 0-0.1: Grade I (unstimulated)) | 0 | 20 | 0 | 0 | 0 | I (Degree of irritation 0-0.1: Grade I (unstimulated)) | 0 | 18 | 0 | 2 | Degree of irritation (human skin; content 1.0%): 0.10
O=C(O)c1ccc(N2CCCN(c3ccc(C(=O)O)o3)CCN(c3ccc(C(=O)O)o3)CCCN(c3ccc(C(=O)O)o3)CC2)o1 [Embodiment 12, 5,5′,5″,5′″-(1,4,8,11-tetraazacyclotetradecane-1,4,8,1-tetrayl)tetrakis(furan-2-carboxylic Acid)] | 0.170 mAU * min | 0 mAU * min | 0.305 mAU * min | I (Degree of irritation 0-0.1: Grade I (unstimulated)) | 0 | 20 | 0 | 0 | 0 | I (Degree of irritation 0-0.1: Grade I (unstimulated)) | 0 | 20 | 0 | 0 | 0 | I (Degree of irritation 0-0.1: Grade I (unstimulated)) | 0 | 19 | 0 | 1 | Degree of irritation (human skin; content 1.0%): 0.05
O=C(O)c1ccc(N(CCN(CCN(c2ccc(C(=O)O)cc2)c2ccc(C(=O)O)cc2)c2ccc(C(=O)O)cc2)CCN(c2ccc(C(=O)O)cc2)c2ccc(C(=O)O)cc2)cc1 [Embodiment 2, 4,4′,4″,4′″-(((ethane-1,2-diylbis((4-carboxyphenyl)azanediyl))bis(ethane-2,1-diyl))bis(azanetriyl))tetrabenzoic Acid] | 0.168 mAU * min | 0 mAU * min | 0.305 mAU * min | I (Degree of irritation 0-0.1: Grade I (unstimulated)) | 0 | 20 | 0 | 0 | 0 | I (Degree of irritation 0-0.1: Grade I (unstimulated)) | 0 | 20 | 0 | 0 | 0 | I (Degree of irritation 0-0.1: Grade I (unstimulated)) | 0 | 19 | 0 | 1 | Degree of irritation (human skin; content 1.0%): 0.05
O=C(O)CN(CCN(CCN(CC(=O)O)CC(=O)O)CC(=O)O)CCN(CC(=O)O)CC(=O)O [Embodiment 1, 3,6,9,12-tetrakis(carboxymethyl)-3,6,9,12-tetraazatetradecanedioic Acid] | 0.170 mAU * min | 0 mAU * min | 0.305 mAU * min | I (Degree of irritation 0-0.1: Grade I (unstimulated)) | 0 | 20 | 0 | 0 | 0 | I (Degree of irritation 0-0.1: Grade I (unstimulated)) | 0 | 19 | 0 | 1 | 0.05 | II (Degree of irritation 0.11-0.3: Grade II (weakly stimulated)) | 0 | 16 | 0 | 4 | Degree of irritation (human skin; content 1.0%): 0.20
O=C(O)c1ccc(N(CCN(CCN(c2ccc(C(=O)O)o2)c2ccc(C(=O)O)o2)c2ccc(C(=O)O)o2)CCN(c2ccc(C(=O)O)o2)c2ccc(C(=O)O)o2)o1 [Embodiment 4, 5,5′,5″,5′″-(((ethane-1,2-diylbis((5-carboxyfuran-2-yl)azanediyl))bis(ethane-2,1-diyl))bis(azanetriyl))tetrakis(furan-2-carboxylic Acid)] | 0.173 mAU * min | 0 mAU * min | 0.305 mAU * min | I (Degree of irritation 0-0.1: Grade I (unstimulated)) | 0 | 20 | 0 | 0 | 0 | I (Degree of irritation 0-0.1: Grade I (unstimulated)) | 0 | 20 | 0 | 0 | 0 | I (Degree of irritation 0-0.1: Grade I (unstimulated)) | 0 | 19 | 0 | 1 | Degree of irritation (human skin; content 1.0%): 0.05

Source: patent US11274268B2, “Detergent compositions for removing heavy metals and formaldehyde” (FNG RESEARCH CO., LTD., priority 2017, dated 2022)
